Source: patent US20050233984A1, “Composition for preventing or treating degenerative brain diseases comprising a hydrolysate of ginsenosides” (Digital Biotech Co., Ltd., priority 2002, published 2005)

Key:
[1] = test system: neuroblastoma B103 cell line; assay: MTT test: apoptosis induced by staurosporin; assay type: cell-based; settings: B103 cells, staurosporin-only control = 100%
Method: (§1) 5×10^3 cells of neuroblastoma B103 cell line (donated by Dr. David Schubert of the Salk Institute, USA) were placed in each well of a 96-well plate with 100 μl of DMEM (Dulbecco's Minimal Eagle's Medium) containing 10% fetal bovine serum (FBS), and cultured at 37° C. under 8% CO2 for 1 day. After changing the medium to serum-free DMEM, the cells were treated with various concentrations of test compounds and, 1 hour later, with 25 μM of beta-amyloid (25-35 peptide; US peptide, CA, USA). The cells were cultured at 37° C. for 18 hours, treated with 15 μl of MTT solution [10 mg/ml solution of 3-(4,5-dimethyl-2-thiazolyl)-2,5-diphenyl-2H-tetrazolium bromide in phosphate buffered saline (PBS)], and allowed to react at 37° C. for 3 to 4 hours. 100 μl of lysis buffer (10% SDS, 50% dimethylformamide, pH 4.7) was added to the wells, and the cells were cultured overnight at room temperature and relative humidity of 90%. Optical density (OD) of each well was measured at […] and 630 nm, respectively, using a scanning multiwell spectrophotometer, and then the OD value at 630 nm was subtracted from that at 570 nm.
Further, in order to examine whether compounds originating from ginseng can block apoptosis, […], and the survival rates of the neural cells were determined.

[2] = test system: neuroblastoma B103 cell line; assay: MTT test: preventing the toxicity of beta-amyloid; assay type: cell-based; settings: B103 cells, beta-amyloid-only control = 100%
Method: In order to examine the activities of the compounds prepared in the Reference Example in preventing the toxicity of beta-amyloid, the MTT analysis (Gillardon, F. et al., Brain Research. No. 6: pp. 169-172 (1996)) was carried out as follows.
as §1, with “After changing the medium to serum-free DMEM, the cells were treated with various concentrations of test compounds and, 1 hour later, with 25 μM of beta-amyloid (25-35 peptide; US peptide, CA, USA).” left out
Setting the survival rate of the control group treated only with beta-amyloid as 100%, relative survival rates of the experimental groups treated with compound Y, ginsenosides Mc and Rc, PPD and PPT, respectively, were calculated, and the results are shown in Table 2 and FIG. 1. The obtained values were statistically significant.
When the same procedure as above was repeated except that the cells were treated simultaneously with the test compound and beta-amyloid, or treated with the test compound one hour after the beta-amyloid treatment, the results were almost the same as above.
Further, in order to assess the concentration-dependent activity of a test compound, the above procedure was repeated using PPT at concentrations ranging from […].

[3] = test system: mice; assay: Morris water maze test (spatial learning); assay type: in vivo; settings: versus control group, FIG. 6
[4] = Degree of BBB penetration: pharmacokinetics in blood and brain by LC-mass; assay type: in vivo, Sprague-Dawley rat; settings: SD rat; for migration into the brain (in words): 1 mg/kg intravenous Rg1 or Rb1
Method: A male Sprague-Dawley rat (weight 250-300 g) was lightly anesthetized with ether and catheterized with a polyethylene tube (PE-50) in the femoral artery and vein. After the rat recovered, a saline solution containing 1 mg/kg of Rg1 or Rb1 was administered into the femoral vein through the intravenous bolus administration. 300 μl blood samples were collected from the rat's femoral artery at 2, 5, 10, 15, 20, 30, 45 and 60 minutes after the administration. Each blood sample was centrifuged to obtain 100 μl of plasma. A plasma sample was prepared as in (2) of step 1 with the plasma. 20 μl of the sample was injected into the LC mass system as in Step 1, and ginsenosides Rg1 and Rb1 and their metabolites PPD and PPT were quantified. The plasma concentrations of ginsenosides and their metabolites were calculated in the forms of weight per plasma (ml) (in case of ginsenosides) or peak size (in case of metabolites).
Immediately after collecting the blood samples, the rats were decapitated and brain tissues were obtained therefrom. The tissues were rinsed with ice-cooled saline, placed in a 15 ml Falcon tube and then weighed precisely. Acetonitrile was added to the tube in an amount twice the weight of the tissue sample, and the sample was homogenized using a tissue homogenizer (Ultra-Turrax T25, JANKE&KUNKEL IKA-Labortechnik). The mixture was centrifuged at 3,000 rpm for 20 minutes. 300 μl of the resulting supernatant was dried in a speed-vac, and 300 μl of acetonitrile was added thereto. 20 μl of the resulting mixture was injected in the LC mass system as in Step 1 to quantify the concentrations of ginsenosides and their metabolites in the brain, and the measured concentrations were represented by weight per gram of the brain tissue or peak size.
Separation and detection conditions for ginsenosides Rg1 and Rb1 were as described in Step 1, and those for metabolites PPD and PPT were as follows:
The transfer rate of the substances into the brain (Kbrain) can be represented by the ratio of the mean concentration of the substance in the brain (Cmean,brain) to the mean plasma concentration (Cmean,plasma) as in Equation 1. [formula]
The mean concentration of a substance can be determined by dividing the area under the concentration-time curve corresponding to time 0 to t by t and, accordingly, the transfer rate of the substance into the brain (Kbrain) can be calculated by Equation 2 shown below. [formula]

[5] = test compound 1 μM + 0.1 μM staurosporin
[6] = test compound 1 μM alone, without staurosporin
[7] = test compound 1 μM + 25 μM beta-amyloid (25-35), 18 hours
[8] = test compound 1 μM alone, without beta-amyloid

Row | Compound | Survival rate (%) [1, 5] [%] | Survival rate (%) [1, 6] [%] | Survival rate (%) [2, 7] [%] | Survival rate (%) [2, 8] [%] | time to reach the platform [3] | Survival rate (%) ([2]; test compound 10 μM + 25 μM beta-amyloid (25-35), 18 hours) | Survival rate (%) ([2]; test compound 10 μM alone, without beta-amyloid) | migration into the brain (in words) [4] | concentration in the brain as compared with that in the plasma ([4]; 1 mg/kg intravenous bolus, until 60 min., FIG. 11b) | concentration in the brain ([4]; 1 mg/kg intravenous bolus of the ginsenoside, FIG. 11a)
1 | CC(C)=CCC[C@](C)(O[C@@H]1O[C@H](CO[C@@H]2O[C@@H](CO)[C@H](O)[C@H]2O)[C@@H](O)[C@H](O)[C@H]1O)[C@H]1CC[C@]2(C)[C@@H]1[C@H](O)C[C@@H]1[C@@]3(C)CC[C@H](O)C(C)(C)[C@@H]3CC[C@]12C [Ginsenoside Mc] | 101.1 ± 2.7 | 178.6 ± 6.3 | 106.1 ± 2.4 | 148.0 ± 6.3 | much shorter time to reach the platform |  |  |  |  | 
2 | CC(C)=CCC[C@](C)(O[C@@H]1O[C@H](CO[C@@H]2O[C@@H](CO)[C@H](O)[C@H]2O)[C@@H](O)[C@H](O)[C@H]1O)[C@H]1CC[C@]2(C)[C@@H]1[C@H](O)C[C@@H]1[C@@]3(C)CC[C@H](O[C@@H]4O[C@H](CO)[C@@H](O)[C@H](O)[C@H]4O[C@@H]4O[C@H](CO)[C@@H](O)[C@H](O)[C@H]4O)C(C)(C)[C@@H]3CC[C@]12C [Ginsenoside Rc] | 97.0 ± 4.8 | 191.4 ± 4.9 | 106.0 ± 0.9 | 161.0 ± 4.9 | much shorter time to reach the platform | 107.2 ± 1.9 | 126.7 ± 3.7 |  |  | 
3 | CC(C)=CCC[C@](C)(O[C@@H]1O[C@H](CO[C@@H]2O[C@H](CO)[C@@H](O)[C@H](O)[C@H]2O)[C@@H](O)[C@H](O)[C@H]1O)[C@H]1CC[C@]2(C)[C@@H]1[C@H](O)C[C@@H]1[C@@]3(C)CC[C@H](O[C@@H]4O[C@H](CO)[C@@H](O)[C@H](O)[C@H]4O[C@@H]4O[C@H](CO)[C@@H](O)[C@H](O)[C@H]4O)C(C)(C)[C@@H]3CC[C@]12C [ginsenoside Rb1, reference compound] |  |  |  |  |  |  |  | do not migrate into the brain | below 5.8% | 
4 | CC(C)=CCC[C@](C)(O[C@@H]1O[C@H](CO)[C@@H](O)[C@H](O)[C@H]1O)[C@H]1CC[C@]2(C)[C@@H]1[C@H](O)C[C@@H]1[C@@]3(C)CC[C@H](O)C(C)(C)[C@@H]3[C@@H](O[C@@H]3O[C@H](CO)[C@@H](O)[C@H](O)[C@H]3O)C[C@]12C [ginsenoside Rg1, reference compound] |  |  |  |  |  |  |  | do not migrate into the brain |  | below the detectable level
